Data on 9 compounds can be found in patent publication US5232917A, “Methods, compositions, and compounds for allosteric modulation of the GABA receptor by members of the androstane and pregnane series” (priority 1991, dated 1993).

Series [1] has as its system (+)bicuculline-induced seizures. Details: key: NP: no protection. To be noted: 1982, cited from earlier work.
Series [2] concerns picrotoxin-induced convulsions. Also on record: key: NP: no protection. To be noted: 1982, cited from earlier work.
Series [3] relates to metrazol-induced convulsions. Also on record: key: NP: no protection. To be noted: 1982, cited from earlier work.
The subject of series [4] is maximal electroshock seizure. To be noted: 1982, cited from earlier work.
In series [5] the test system is strychnine-induced convulsions. As to conditions: 1982, cited from earlier work.
For series [6] the following is noted: 1982, cited from earlier work.
Series [7] deals with GABA receptor-chloride ionophore complex (GR complex). Nature of the series: [35S]TBPS binding modulation assay. As to conditions: for IC50: read-out: IC50, inhibition of [35S]-TBPS binding, +5 μM GABA, in the presence of 5 μM GABA; for Max. Inhib., maximal % of specifically bound [35S]-TBPS displaced: saturating concentrations of test compound.
Series [8] relates to metrazol induced convulsions. Briefly: Inhibition of metrazol induced convulsions (Table 2). The series is classed as in vivo, mice. To be noted: Mus musculus; inhibition of metrazol induced convulsions; read-out: Anti-Metrazol ED50. Here is the method:
Experiments were also performed to determine the physiological relevance of these interactions by measuring the ability of the compound of and used in the invention to modulate TBPS-induced convulsions in Swiss-Webster mice. […] The time to onset of myoclonus (presence of forelimb clonic activity) induced by TBPS was determined by observing each mouse for a period of 45 minutes. Significant differences between the time to onset in control mice vs. steroid-treated mice were determined by Student's t-test. […] The number of animals with tonic and/or clonic convulsions was recorded. In the maximal electroshock test, 50 mA of current at 60 Hz was delivered through corneal electrodes for 200 msec to induce tonic seizure. […] The ED50 (the dose at which the half-maximal effect occurs) was determined for each screen.
Adult male CFI mice (20-30g) were used in these studies. […] Percent protection against metrazol-induced seizures was plotted against time after administration of the compound. […] Ten to twelve mice were used per dose of test drug. […] The number of animals with tonic and/or clonic convulsions was recorded. The ability of the steroid to abolish the tonic component was defined as the endpoint. Sedative potential was determined by a rotorod test where the number of mice staying on a rotating (6 rpm) rod for ≥1 min. in each of three trials was determined.

Another series has as its target T1, progesterone receptor (Bos taurus, UniProt F1N712).
T1 construct: from tissue; host or cells: bovine uterus cytosol
T1 sequence (F1N712 1-914): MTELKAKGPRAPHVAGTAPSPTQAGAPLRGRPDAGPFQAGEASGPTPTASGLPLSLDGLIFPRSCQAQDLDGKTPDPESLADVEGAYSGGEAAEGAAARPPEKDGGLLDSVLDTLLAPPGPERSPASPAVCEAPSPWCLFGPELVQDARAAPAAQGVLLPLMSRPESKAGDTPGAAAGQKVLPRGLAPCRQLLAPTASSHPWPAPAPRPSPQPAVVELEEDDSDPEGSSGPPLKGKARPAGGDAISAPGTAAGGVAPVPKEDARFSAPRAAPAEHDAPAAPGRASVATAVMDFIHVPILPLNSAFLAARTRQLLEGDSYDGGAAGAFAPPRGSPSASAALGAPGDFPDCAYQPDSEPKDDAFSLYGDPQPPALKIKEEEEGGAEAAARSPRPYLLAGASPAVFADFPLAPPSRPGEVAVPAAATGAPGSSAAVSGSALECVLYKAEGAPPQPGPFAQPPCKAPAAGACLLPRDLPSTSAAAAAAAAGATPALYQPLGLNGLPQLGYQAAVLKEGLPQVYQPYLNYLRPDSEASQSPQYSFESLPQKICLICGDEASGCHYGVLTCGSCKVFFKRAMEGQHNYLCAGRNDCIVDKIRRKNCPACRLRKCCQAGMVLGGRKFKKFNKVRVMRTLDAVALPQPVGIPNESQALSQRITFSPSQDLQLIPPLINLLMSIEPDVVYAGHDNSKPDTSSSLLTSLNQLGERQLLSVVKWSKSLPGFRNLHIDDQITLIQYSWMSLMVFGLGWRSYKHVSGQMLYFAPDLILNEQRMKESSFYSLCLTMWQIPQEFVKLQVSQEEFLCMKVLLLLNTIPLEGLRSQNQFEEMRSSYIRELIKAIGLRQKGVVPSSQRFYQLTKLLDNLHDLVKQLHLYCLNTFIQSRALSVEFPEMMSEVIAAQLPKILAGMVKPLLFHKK
Nature of the series: Inhibition of 3H-progesterone binding to bovine uteral progesterone receptors. The procedure:
The hormonal activity of drugs described herein was further studied through testing their potential estrogenic, progestinic, mineralocorticoid and glucocorticoid activities. These activities were analyzed by monitoring the ability of the drugs to inhibit binding of the steroid hormones to their respective hormone receptors.
For the data presented in Table 9, bovine uteri cytosol was isolated as they were for Table 7 and used for following binding to progesterone receptors by following the inhibition of ^3 H-progesterone, the natural ligand.

Series [9] has as its system number of light/dark transitions (anxiety). Nature of the series: Light/dark transition test. In kind it is in vivo, mice (male N.I.H. Swiss-Webster). To be noted: 3α-OH-DHP 10, 20, 40 mg/kg; 5α-THDOC 20 mg/kg; diazepam 1.0, 5.0, 10, 20 mg/kg; 20 mg/kg. The text has this: (§1) The light/dark transition test (Crawley and Goodwin, 1980) is based on the observation that rodents naturally tend to explore novel environments, but open, brightly lit arenas are aversive to the rodents and inhibit exploratory behavior (Christmas and Maxwell, 1970; File, 1980). […] Similar to the light/dark transition test, the open-field test measures the antagonism between the tendency to explore a novel environment and the tendency to remain still in an aversive environment (brightly lit arena). […] The open-field test provides a simple, non-punished assessment of the potential anxiolytic properties of novel compounds. Finally, 3α-OH-DHP was tested for anxiolytic properties in a Vogel conflict paradigm. The ability of BZs to attenuate the suppression of behavior by punishment in conflict paradigms is well established (Gellar et al., 1962; Vogel et al., 1971).
(§2) Male N.I.H. Swiss-Webster mice (Harlan) weighing 15-20 g were used in all experiments. The mice were housed 4/cage in polyethylene cages with sawdust bedding. The colony room was environmentally controlled (22° C.) with a 12 hr. light/dark cycle (0600-1800 hrs.). The mice had free access to food and water. The experiments were run from 0700-1500 hrs. and groups were counterbalanced for time of day effects.
The method used was previously described by Crawley and Goodwin (1980). The apparatus included a large box (26×33×24 cm) connected to a small box (15×22×14 cm) through an opening (5×6 cm). The large box was brightly lit with a standard 100W light bulb, while the small box was kept dark. Following pretreatment with a test drug, mice were placed in the center of the large box and the number of transitions between the large and small boxes was counted for 10 min. […] During the antagonist studies, CGS-8216 was administered 30 min. prior to the test drug.
(§3) 2-Hydroxypropyl β-cyclodextrin Diazepam and chlordiazepoxide are available from Sigma, Co. (St. Louis, Mo.). CGS-8216 was obtained from Ciba-Geigy (Summit, N.J.). All drugs were dissolved in 20% β-cyclodextrin in water and sonicated overnight. All drugs were administered intraperitoneally in a volume of 100 μL/20 g. CGS-8216 was administered subcutaneously in a volume of 100 μL/20 g.
(§4) The vehicle control data were analyzed across test days using an 1-way analysis of variance (ANOVA). […] The dose-response curves were then analyzed using an 1-way ANOVA, followed by Dunnett's t-test for individual comparisons between doses and control. The open-field and habituated locomotor data were analyzed using ANOVA followed by Dunnett's t-test. […] All data is expressed as the mean±S.E.M.

Another series deals with open-field activity. Briefly: Open-field activity test. The series is classed as in vivo, mice (male N.I.H. Swiss-Webster).
Description: as §1, §2
As a secondary measure of anxiolytic effects, naive mice were placed in the center of a large, brightly lit plexiglass box (42×42×30.5 cm) and the total distance traveled was measured during a 10 min. test period. […] The Digiscan Activity Monitor (Omnitech Electronics, Columbus, Ohio) includes 16 photobeams that surround the box. The activity monitor is linked to a computer through a Digiscan Analyzer (Omnitech Electronics) and the data is analyzed using the Integrated Lab Animal Monitoring System (Omnitech Electronics). The mice were administered drugs as described for light/dark transitions.
as §3, §4

SMILES strings stand for the structures. Like-named read-outs stand apart in the source and are kept apart here.

`CCC1(c2ccccc2)C(=O)NC(=O)NC1=O` [Phenobarbital]: the “ED50 BIC (bicuculline)” value in series [1] (Swinyard & Woodhead) was 38 mg/kg. For the same compound, in series [2] (Swinyard & Woodhead), the “ED50 PICRO (picrotoxin)” value was 28 mg/kg. In [3] (Swinyard & Woodhead), the “ED50 MTZ (metrazol)” value was 13 mg/kg. The “ED50 MES (maximal electroshock)” value in series [4] (Swinyard & Woodhead) was 22 mg/kg. Further, the “ED50 STR (strychnine)” value in series [5] (Swinyard & Woodhead) is 95 mg/kg. For the same compound, the LD50 in series [6] (Swinyard & Woodhead) was 265 mg/kg.
Take `NC(=O)CCC/N=C(\c1ccc(Cl)cc1)c1cc(F)ccc1O` [Progabide]: the “ED50 BIC (bicuculline)” value in series [1] (convulsant i.v., Worms et al.) was 30 mg/kg. Further, the “ED50 PICRO (picrotoxin)” value in [2] (convulsant i.v., Worms et al.) was 105 mg/kg. In addition, the “ED50 MTZ (metrazol)” value in series [3] (convulsant i.v., Worms et al.) is 30 mg/kg. Also, the “ED50 MES (maximal electroshock)” value in [4] (Worms et al.) is 75 mg/kg. Besides, the “ED50 STR (strychnine)” value in [5] (convulsant i.v., Worms et al.) is 75 mg/kg. Also, the LD50 in [6] (Worms et al.) was 3000 mg/kg.
`CCO[C@H]1C[C@@]2(C)[C@@H](CC[C@@H]3[C@@H]2CC[C@]2(C)[C@@H](C(C)=O)CC[C@@H]32)C[C@@H]1O` [2β-ETHOXY-3α-HYDROXY-5α-PREGNAN-20-ONE, 2β-Ethoxy-3α-hydroxy-5α-pregnan-20-one]: in [7], the IC50 was found to be 97 nM and the “Max. Inhib., maximal % of specifically bound [35S]-TBPS displaced” value was determined as 100%. The ED50 in [8] was found to be 6 mg/kg.
The matching figures for `CO[C@H]1C[C@@]2(C)[C@@H](CC[C@@H]3[C@@H]2CC[C@]2(C)[C@@H](C(C)=O)CC[C@@H]32)C[C@@H]1O` [2β-METHOXY-3α-HYDROXY-5α-PREGNAN-20-ONE, 2β-Methoxy-3α-hydroxy-5α-pregnan-20-one]: 66 nM, 100% and 60 mg/kg.
As to `O=C1NC(=O)C(c2ccccc2)(c2ccccc2)N1` [Phenytoin], in series [1] (Swinyard & Woodhead), the “ED50 BIC (bicuculline)” value is recorded as “NP”. For the same compound, the “ED50 PICRO (picrotoxin)” value in [2] (Swinyard & Woodhead) was “NP”. In series [3] (Swinyard & Woodhead), the “ED50 MTZ (metrazol)” value is “NP”. For the same compound, the “Maximum protection, STR (strychnine)” value in [5] (at 55-100 mg/kg, Swinyard & Woodhead) is listed as 50%. The LD50 in series [6] (Swinyard & Woodhead) was 230 mg/kg.
As to `CC(=O)[C@H]1CC[C@H]2[C@@H]3CC[C@H]4C[C@](C)(O)CC[C@]4(C)[C@H]3CC[C@]12C` [3α-HYDROXY-3β-METHYL-5α-PREGNAN-20-ONE, 3α-hydroxy-3β-methyl-5α-pregnan-20-one], the inhibition at 10 µM at progesterone receptor (read-out: % of inhibition of 3H-progesterone binding, A, competitor 10^-5 M, 0.15 nM 3H-progesterone) was found to be 10%; at progesterone receptor (read-out: % of inhibition of 3H-progesterone binding, B, competitor 10^-5 M, 0.25 nM 3H-progesterone) it was 5%. The inhibition at 1 µM on progesterone receptor (read-out: % of inhibition of 3H-progesterone binding, A, competitor 10^-6 M, 0.15 nM 3H-progesterone) was determined as 4%; at progesterone receptor (read-out: % of inhibition of 3H-progesterone binding, B, competitor 10^-6 M, 0.25 nM 3H-progesterone), 2%. Further, the concentration for half-maximal inhibition (IC50) in [7] came to 60 nM. Also, the “Max. Inhib., maximal % of specifically bound [35S]-TBPS displaced” value in series [7] is 100%. In addition, in [8], the ED50 stood at 9 mg/kg.
Consider `CC(=O)[C@H]1CC[C@H]2[C@@H]3CC[C@H]4C[C@@H](O)CC[C@]4(C)[C@H]3CC[C@]12C` [Example 3β-OH-DHP, 3β-hydroxy-5α-pregnan-20-one, reference compound], for which the “effect on number of light/dark transitions (words)” value in series [9] was “did not produce an anxiolytic effect”. In series [7], the IC50 is greater than 100000 nM and the “Max. Inhib., maximal % of specifically bound [35S]-TBPS displaced” value is reported as 33%. The “IC50, inhibition of [35S]-TBPS binding, No GABA” value in [7] (washed synaptoneurosomes, no GABA added) is “Inactive”. In addition, in the series on open-field activity (20 mg/kg, 10 min, vehicle 2004.6 ± 134.6), the “total distance, open-field” value was 1979.8 ± 174.5 cm. Further, the “effect on open-field activity” value in the series with open-field activity (steroids 20 mg/kg, diazepam 10 mg/kg) is given as “did not show any effect”.
For `CCCC(CCC)C(=O)O` [Valproate], the “ED50 BIC (bicuculline)” value in series [1] (Swinyard & Woodhead) was 360 mg/kg. The “ED50 PICRO (picrotoxin)” value in series [2] (Swinyard & Woodhead) was 387 mg/kg. The “ED50 MTZ (metrazol)” value in series [3] (Swinyard & Woodhead) is 149 mg/kg. The “ED50 MES (maximal electroshock)” value in series [4] (Swinyard & Woodhead) is 272 mg/kg. Moreover, the “ED50 STR (strychnine)” value in series [5] (Swinyard & Woodhead) is 293 mg/kg. In series [6] (Swinyard & Woodhead), the LD50 was 1105 mg/kg.
As for `CC(=O)[C@H]1CC[C@H]2[C@@H]3CCC4=C[C@H](O)CC[C@]4(C)[C@H]3CC[C@]12C` [3α-HYDROXY-4-PREGNEN-20-ONE], in series [7], the IC50 turned out to be 154 nM and the “Max. Inhib., maximal % of specifically bound [35S]-TBPS displaced” value turned out to be 80%. Moreover, the ED50 in [8] turned out to be 20 mg/kg.

By LD50 is commonly meant the dose at which mortality reaches 50%. What is called IC50 is the concentration that inhibits the measured activity by half. For orientation: ED50 means the dose that gives a 50% effect, or the effect in half of the subjects. What is called inhibition is the drop in the measured response relative to a control, in per cent.
